Experimental data taken from patent US20240018120A1, “MAGL INHIBITORS” (H. LUNDBECK A/S, priority 2020, published 2024).

What was measured:
MAGL [1] = target: T1, MAGL (Rattus norvegicus, UniProt Q8R431); experiment: MAGL IC50 values marked (rat) in Table 1; type: biochemical; details: cell marked (rat) in the human PC3 column
T1 sequence (Q8R431 1-303): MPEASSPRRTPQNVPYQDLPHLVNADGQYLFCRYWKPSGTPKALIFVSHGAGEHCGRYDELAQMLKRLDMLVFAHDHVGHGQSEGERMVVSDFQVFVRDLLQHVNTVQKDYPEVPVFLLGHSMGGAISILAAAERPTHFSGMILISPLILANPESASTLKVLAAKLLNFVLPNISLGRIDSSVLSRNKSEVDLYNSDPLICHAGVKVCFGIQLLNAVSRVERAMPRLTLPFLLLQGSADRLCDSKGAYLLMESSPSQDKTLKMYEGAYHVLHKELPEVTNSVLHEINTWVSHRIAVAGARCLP

[2] = test system: rat formalin paw model of inflammatory pain; experiment: Rat formalin paw model of inflammatory pain; type: in vivo; details: 4 h pre-test, vs vehicle
Method: In the rat formalin paw model formalin is administered into the right […] of a rat in order to induce pain (observed by hind limb licking duration and frequency).
Male Sprague Dawley rats were divided into three cohorts to enable testing in the Laboras™ equipment to be carried out over three days in a balanced design to give treatment groups of 10. On the day of the study, male Sprague Dawley rats were weighed, tail marked and dosed orally with vehicle, test compound (0.1, 0.3, 0.6, 1, 3 or 10 mg/kg) or pregabalin (30 mg/kg) 4 h pre-test using a 5 mL/kg dosing volume. For Example 6 the vehicle used was 0.5% methylcellulose in water and for Example 8 the vehicle used was 20% HP-b-CD. Up to six animals were dosed at a time. After 4 h, rats received an intraplantar injection of 50 μL of a 2.5% v/v formalin solution into the right hind paw. Rats were immediately placed into the Laboras™ cages and data acquisition started. The primary measures recorded by Laboras™ for the formalin paw model are hind limb licking duration and frequency. Locomotion is also reported as maximum speed, average speed when moving or over the whole-time bin and distance travelled. After 40 min, when data acquisition was complete, rats were removed from the cages.
On removal from the test cages, rats were anaesthetised with the gaseous anaesthetic isoflurane (5% v/v isoflurane in oxygen) and blood samples were collected by cardiac puncture. Brains were then removed, rinsed in phosphate buffered saline (PBS), hemi-sected and frozen separately in liquid nitrogen.
Data were analysed with Statistica software (TIBCO, USA version 11.1). All data are expressed as means±standard error of the mean (sem) to one decimal place. […] Time course data were analysed by repeated measures analysis of variance (ANOVA) followed by one-way ANOVAs at each time point and subsequent Dunnett's post hoc tests. […]

[3] = test system: maximal electroshock seizure threshold (MEST) model; experiment: Maximal electroshock seizure threshold (MEST) model in the rat; type: in vivo; details: 10 mg/kg p.o., 240 min pre-treatment
Method: In the MEST model, a low-intensity electrical current of high frequency and short duration is applied to induce tonic convulsions.
Animals were randomly assigned to vehicle, compound treatment or Lamotrigine dose groups. Animals were dosed at 5 mL/kg according to treatment groups (n=12 or 16/group), with either vehicle (0.5% MC) p.o. for Example 6, vehicle (10% HP-b-CD) for Example 8, test compound at 10 mg/kg p.o. 240 min pre-treatment time, or Lamotrigine p.o. 360 min pre-treatment time. Rats were individually assessed for production of a tonic hind limb extensor seizure following a single corneally delivered electroshock of 0.3 second duration, using an ‘up and down method’ of shock titration (Kimball A W et al., 1957). Thus, the first rat within a treatment group was given a shock at the expected or estimated CC50 current (current producing tonic hind limb extensor seizures in 50% of animals). […] This procedure was continued for all rats within a treatment group. Induction of seizure was measured as an all-or-nothing effect scored as either present (+) or absent (0) for each animal. […]
Significant differences between drug-treated animals and controls were assessed according to Litchfield and Wilcoxon (1949) or One-Way ANOVA followed by Dunnett's multiple comparisons test.

[4] = test system: kainic acid seizure model; experiment: Kainic acid seizure model in the rat; type: in vivo
Method: Kainic acid is an analog of the excitatory neurotransmitter, glutamate and acts as an agonist of kainic acid receptors. After systemic injection, kainic acid induces prolonged excitatory responses with many of the features of human temporal lobe epilepsy.
Rats, placed in individual Plexiglas cages (33×21×18 cm), are injected with kainic acid (20 mg/kg i.p.). The occurrences of the following symptoms are noted over a 120-minute period 30 minutes after kainic acid injection: forelimb clonus, rearings and rearings with falling, clonic convulsions, tonic convulsions and death. The presence of each symptom and the latencies to the first appearance of the symptoms are measured. The number of forelimb clonus is counted.
12 rats are studied per group. The test is performed partially blind.
The test substances will be evaluated at multiple doses, administered p.o. 240 minutes before the test, and compared with the corresponding vehicle control group (Group 2, administered with 10% HP-b-CD in distilled water, p.o. 240 minutes before the test).
Example 6 was evaluated at 0.3, 1, 3 and 10 mg/kg, and Example 8 was evaluated at 1, 3 and 10 mg/kg, administered p.o. 4 hours before the test, and compared with a vehicle control group (administered with 10% HP-b-CD, p.o. 4 hours before the test).
Diazepam (16 mg/kg) used as reference substance, was administered p.o. 60 minutes before the test (0.5% HP-b-CD) and was compared with vehicle controls.
Quantitative data (latencies) with the test substance was analyzed by comparing treated groups with vehicle control using Kruskal-Wallis test followed by Mann-Whitney U test. Quantitative data with the reference substance will be analysed using Mann-Whitney U test.
Quantal data (frequencies) were analyzed by comparing treated groups with vehicle control using Fisher's Exact Probability tests.

[5] = test system: cryopreserved human hepatocytes; experiment: In vitro human hepatocyte stability; type: in vitro ADME; details: human hepatocytes 0.5×10^6 cells/mL, 1 μM
Method: The metabolic stability of test articles (1 μM) in commercially sourced, pooled donor, cryopreserved human hepatocytes (0.5×10^6 cells/mL) was determined in duplicate. The CLint reactions (250 μL) were initiated by addition of test compound. Aliquots (25 μL) were taken at 0, 15, 30, 45, 60, 90, 120 and 240 minutes and then protein crashed with ice-cold acetonitrile containing internal standard then centrifuged (3220 g for 25 minutes). Supernatant was used for LC-MS/MS analysis. The in vitro half-life (in vitro t½) was determined from the slope value: in vitro t1/2=−0.693/k. Conversion of the in vitro t1/2 (in min) into the scale-up unbound intrinsic clearance (Scaled-up unbound CLint, in mL/min/kg) was done using the following equation (mean of duplicate determinations), with data shown in Table 5: Scaled-up unbound CLint=kV/N×scaling factor. V=incubation volume (0.25 mL); N=number of hepatocytes per well ([…]). Scaling factors for in vivo intrinsic clearance prediction are listed below: […]

MAGL [6] = target: T2, MAGL (Homo sapiens, UniProt Q99685); experiment: In vitro competitive activity-based protein profiling, PC3 human cell membrane proteomes; type: biochemical; parameters: endogenous in cells; host or cells: PC3 human cells (membrane proteome); details: human PC3 membrane proteome
T2 sequence (Q99685 1-303): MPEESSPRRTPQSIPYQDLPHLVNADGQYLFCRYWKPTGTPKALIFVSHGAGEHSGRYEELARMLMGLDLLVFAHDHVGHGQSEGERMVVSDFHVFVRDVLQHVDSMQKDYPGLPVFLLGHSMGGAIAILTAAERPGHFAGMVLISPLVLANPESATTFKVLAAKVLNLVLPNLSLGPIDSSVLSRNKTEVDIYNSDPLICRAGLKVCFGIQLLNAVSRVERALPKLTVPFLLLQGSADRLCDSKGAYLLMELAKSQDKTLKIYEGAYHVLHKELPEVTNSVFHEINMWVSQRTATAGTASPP
Procedure, shortened: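 Competitive ABPP in PC3 membrane proteome (2.0 mg/mL protein): inhibitors preincubated 30 min at 37° C, then JW912-Bodipy probe added for 30 min at room temperature. MAGL band fluorescence after SDS-PAGE normalised to DMSO; IC50 from 4-parameter sigmoidal fit.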

Row | Compound | IC50 (MAGL [1]) [µM] | measure of spontaneous pain (hind limb licking frequency) ([2]; 0.3 mg/kg and 0.6 mg/kg oral, late phase) | measure of spontaneous pain (hind limb licking frequency) ([2]; 1 mg/kg, 3 mg/kg and 10 mg/kg oral, both early and late phases) | anticonvulsant activity in the MEST (seizure threshold CC50) [3] | anticonvulsant effects in the kainic acid seizure test ([4]; dose-range 1-10 mg/kg p.o., 4 hours before the test, rat) | magnitude of the effects in the kainic acid seizure test compared with reference ([4]; middle-high doses, reference Diazepam 16 mg/kg p.o.) | Scaled-up unbound CLint [5] [mL/min/kg] | IC50 (MAGL [6]) [µM]
1 | N#Cc1ccc(NC(=O)C2CC23CCN(C(=O)OC(C(F)(F)F)C(F)(F)F)CC3)cn1 (racemic) [Example 189, 1,1,1,3,3,3-hexafluoropropan-2-yl (+)1-((6-cyanopyridin-3-yl)carbamoyl)-6-azaspiro[2.5]octane-6-carboxylate] | 0.0033 |  |  |  |  |  |  | 
2 | O=C(O)COc1ccc(NC(=O)C2CC23CCN(C(=O)OC(C(F)(F)F)C(F)(F)F)CC3)cn1 (single isomer, unassigned) [Example 183, (R or S)-2-((5-(6-(((1,1,1,3,3,3-hexafluoropropan-2-yl)oxy)carbonyl)-6-azaspiro[2.5]octane-1-carboxamido)pyridin-2-yl)oxy)acetic acid] | 0.39 |  |  |  |  |  |  | 
3 | O=C(NC1CCOCC1)[C@H]1CC12CCN(C(=O)OC(C(F)(F)F)C(F)(F)F)CC2 [Example 8, 1,1,1,3,3,3-Hexafluoropropan-2-yl (S)-1-((tetrahydro-2H-pyran-4-yl)carbamoyl)-6-azaspiro[2.5]octane-6-carboxylate] |  | statistically significant reduction | statistically significant reduction | anticonvulsant activity | clear anticonvulsant effects | close to those observed with the reference substance, Diazepam | 7.75 | 0.0657
